Assay [1] can be described thus: Ratio of kinact to that of KI.
Assay [2] deals with 4-aminobutyrate aminotransferase, mitochondrial (Homo sapiens) (UniProt P80404). Nature of the assay: Time dependent inactivation of Gamma-amino-N-butyrate transaminase. Particulars: Cavia porcellus.
Chain of 4-aminobutyrate aminotransferase, mitochondrial (Homo sapiens) (P80404 whole entry): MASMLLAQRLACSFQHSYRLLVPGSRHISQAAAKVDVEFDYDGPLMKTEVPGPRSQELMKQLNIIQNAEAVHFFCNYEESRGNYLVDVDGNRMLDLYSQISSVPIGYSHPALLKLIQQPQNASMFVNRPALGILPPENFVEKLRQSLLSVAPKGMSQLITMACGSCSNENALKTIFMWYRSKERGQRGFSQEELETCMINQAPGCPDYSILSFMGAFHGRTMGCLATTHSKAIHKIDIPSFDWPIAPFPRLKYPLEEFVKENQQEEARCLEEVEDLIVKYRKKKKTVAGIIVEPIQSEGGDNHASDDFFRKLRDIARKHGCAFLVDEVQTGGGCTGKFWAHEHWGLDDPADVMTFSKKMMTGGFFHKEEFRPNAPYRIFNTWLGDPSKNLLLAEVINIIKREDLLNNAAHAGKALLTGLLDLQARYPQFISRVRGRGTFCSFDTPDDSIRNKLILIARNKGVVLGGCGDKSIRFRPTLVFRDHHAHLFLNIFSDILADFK

Consider `N[C@@H]1C=CCC[C@@H]1C(=O)O`, for which, in assay [1], the Ratio amounted to 0.0024. The molecule further came in with a K inact in assay [2] of 0.03 min⁻¹.
Take `N[C@@H]1C=CC[C@H](C(=O)O)C1`: the Ratio in assay [1] stood at 0.0042. Moreover, the K inact in assay [2] was found to be 0.01 min⁻¹.

(Values after ChEMBL document CHEMBL1135615.)
